We go through 53 compounds from US12338203B2 (TAISHO PHARMACEUTICAL CO., LTD., priority 2019, dated 2025).

T1 sequence (Q92633 whole entry): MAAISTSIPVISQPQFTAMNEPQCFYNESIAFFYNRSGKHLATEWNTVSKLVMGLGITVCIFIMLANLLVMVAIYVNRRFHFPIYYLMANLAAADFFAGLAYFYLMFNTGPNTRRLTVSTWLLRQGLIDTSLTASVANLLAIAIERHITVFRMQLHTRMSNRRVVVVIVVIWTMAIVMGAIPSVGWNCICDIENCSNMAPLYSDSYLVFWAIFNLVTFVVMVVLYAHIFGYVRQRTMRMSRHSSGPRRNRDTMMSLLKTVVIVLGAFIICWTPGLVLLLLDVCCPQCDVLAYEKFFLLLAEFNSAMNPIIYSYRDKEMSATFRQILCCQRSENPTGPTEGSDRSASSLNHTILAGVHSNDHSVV

The first assay addresses T1, human LPAR1 (Homo sapiens, UniProt Q92633).
T1 construct: expressed in transfected cells
The experiment in a line: Test Example 1: antagonism against response of LPA-induced increase in intracellular Ca2+ concentration in RH7777 cells stably expressing human LPAR1. The assay is classed as cell-based.
Details: not given
A digest of the protocol: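 RH7777 cells stably transfected with human LPAR1 were preincubated with test compound 30 min at 37 °C in HBSS/20 mM HEPES/probenecid/0.05% BSA buffer, pH 7.4, then LPA-stimulated.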
For `COc1cc(CN(CCCCc2ccccc2)C(=O)NC(CC(C)C)C(=O)O)cc(OC)c1C` (centres unmarked) [Example 1-5], the IC50 was 4680 nM.

The assay is the same for the next values; noted with them: RH7777 cells stably expressing human LPAR1; Fluo-4 fluorescence, FDSS6000; read-out: IC50 value (concentration producing 50% antagonism against response of LPA-induced increase in intracellular Ca2+ concentration) (converted).
Consider `CCOc1cc(C(C)N(CCOC(C)c2ccccc2)C(=O)N[C@]2(c3nn[nH]n3)C[C@@H](OC)C2)cc(OCC)c1C(C)O` (some centres unmarked) [Example 10-17], for which the IC50 is 16.7 nM.
Still for that read-out and setting: under `COc1cc(C(C)N(CCOCc2ccccc2)C(=O)NC2(C(=O)O)CC(OC)C2)c(Cl)c(OC)c1C1CC1` (centres unmarked) [Example 5-161] stands 1.46 nM; under `CCOc1cc([C@@H](C)N(CCO[C@@H](C)c2ccccc2)C(=O)NC2(C(=O)O)CC(OC)C2)c(C)c(OCC)c1C(C)=O` (some centres unmarked) [Example 5-71], 2.51 nM.
Still for that read-out and setting: under `COc1cc(C(C)N(CCOCc2ccccc2)C(=O)NC2(C(=O)O)CCOCC2)cc(OC)c1C(C)=O` (centres unmarked) [Example 5-172] stands 54.2 nM; under `COc1cc(C(C)N(CCOC(C)c2ccccc2)C(=O)NC2(C(=O)O)CC(OC)C2)cc(OC)c1C1CC1` (centres unmarked) [Example 5-157], 3.54 nM; under `CCOc1cc([C@@H](C)N(CCCC(F)(F)c2ccccc2)C(=O)NC2(C(=O)O)CC(F)(F)C2)cc(OCC)c1C1CC1` [Example 4-59], 1.62 nM.
Still for that read-out and setting: under `CCOc1cc([C@@H](C)N(CCO[C@@H](C)c2ccccc2)C(=O)NC2(C(=O)O)CCC2)c(Cl)c(OCC)c1C(C)=O` [Example 5-30] stands 2.15 nM.
As to `COc1cc([C@@H](C)N(CCOCc2ccccc2)C(=O)NC2(C(=O)O)CC(OC)C2)cc(OC)c1C(C)=O` (some centres unmarked) [Example 5-121], the IC50 was 12.1 nM.
In the case of `CCOc1cc([C@@H](C)N(CCOCc2ccccc2)C(=O)NC2(C(=O)O)CC(F)(F)C2)c(Cl)c(OCC)c1C(C)=O` [Example 5-38], the IC50 was 0.468 nM.
The same measure, in the same setting: under `CCOc1cc([C@@H](C)N(CCC2Cc3ccccc3C2)C(=O)NC2(C(=O)O)CC(OC)C2)cc(OCC)c1C(C)=O` (some centres unmarked) [Example 4-23] stands 7.17 nM; under `CCOc1cc(C(C)N(CCCCc2ccccc2)C(=O)NC2(C(=O)O)CC2)c(Cl)c(OCC)c1C(C)=O` (centres unmarked) [Example 5-44], 3.38 nM.
Same read-out and setting: the result for `CCOc1cc([C@@H](C)N(CCO[C@@H](C)c2ccccc2)C(=O)N[C@]2(C(=O)O)C[C@@H](OCC)C2)c(Cl)c(OCC)c1C(C)=O` [Example 5-26, Trans-1-[([(1R)-1-(4-Acetyl-2-Chloro-3,5-Diethoxyphenyl)Ethyl]{2-[(1S)-1-Phenylethoxy]Ethyl}Carbamoyl)Amino]-3-Ethoxycyclobutane-1-Carboxylic Acid] reads 1.46 nM.
The same measure, in the same setting: the result for `COc1cc(C(C)N(CCOC(C)c2ccccc2)C(=O)NC2(C(=O)O)CCC2)c(C)c(OC)c1C1CC1` (centres unmarked) [Example 5-139] reads 2.95 nM; that for `CCOc1cc(OCC)nc(C(C)N(CCCCc2ccccc2)C(=O)NC2(C(=O)O)CC(F)(F)C2)c1` (centres unmarked) [Example 5-85, 1-({[1-(4,6-Diethoxypyridin-2-Yl)Ethyl](4-Phenylbutyl) Carbamoyl}Amino)-3,3-Difluorocyclobutane-1-Carboxylic Acid], 5.12 nM.
`CCNc1cc([C@@H](C)N(CCCCc2ccccc2)C(=O)NC2(C(=O)O)CC(F)(F)C2)cc(OCC)c1C(C)=O` [Example 5-108]: the IC50 is 1.51 nM.
On to `CCOc1c(C(C)=O)ccc([C@@H](C)N(CCCCc2ccccc2)C(=O)NC2(C(=O)O)CCOCC2)c1C` [Example 1-156], for which the IC50 was 3.68 nM.
On the same count and under the same terms, the result for `CCOc1cc([C@@H](C)N(CCCC(F)(F)c2ccccc2)C(=O)NC2(C(=O)O)CC(OC)C2)cc(OCC)c1C1CC1` (some centres unmarked) [Example 4-67] reads 1.27 nM; that for `CCOc1cc(C(C)N(CCOCc2ccccc2)C(=O)NC2(C(=O)O)CC(OC)C2)c(Cl)c(OCC)c1C1CC1` (centres unmarked) [Example 5-200], 0.548 nM.
As for `CCOc1cc([C@@H](C)N(CCOCc2ccccc2)C(=O)NC2(C(=O)O)CC(OC)C2)cc(OCC)c1C(C)=O` (some centres unmarked) [Example 4-108], the IC50 was 3.6 nM.
With `CCOc1cc(C(C)N(CCO[C@@H](C)c2ccccc2)C(=O)NC2(C(=O)OC)CC(F)(F)C2)cc(OCC)c1C(C)=O` (some centres unmarked) [Example 6-6], the IC50 was 435 nM.
Same read-out and setting: under `CCOc1cc([C@@H](C)N(CCCC(F)(F)c2ccccc2)C(=O)NC2(C(=O)O)CC(F)(F)C2)cc(OCC)c1C` [Example 4-58] stands 1.15 nM.
Take `CCOc1cc([C@@H](C)N(CCO[C@@H](C)c2ccccc2)C(=O)NC2(C(=O)O)CC(OCC)C2)c(C)c(OCC)c1C(C)=O` (some centres unmarked) [Example 5-119]: the IC50 was 2.91 nM.
Consider `COc1cc(C(C)N(CCOCc2ccccc2)C(=O)NC2(C(=O)O)CC(F)(F)C2)c(C)c(OC)c1C` (centres unmarked) [Example 5-147], for which the IC50 was 3.62 nM.
Still for that read-out and setting: under `CCOc1cc(C(C)N(CCCCc2ccccc2)C(=O)NC2CCC[C@H]2C(=O)O)cc(OCC)c1C` (some centres unmarked) [Example 1-136] stands 18.2 nM; under `CCOc1c(C(C)=O)ccc([C@@H](C)N(CCCCc2ccccc2)C(=O)NC2(C(=O)O)CC(F)(F)C2)c1C` [Example 1-75], 1.24 nM; under `CCOc1cc([C@@H](C)N(CCCCc2ccccc2)C(=O)NC2(c3nn[nH]n3)CC(F)(F)C2)c(Cl)c(OCC)c1C(C)O` (some centres unmarked) [Example 10-11], 8.1 nM.
Same read-out and setting: the result for `CCNc1cc(C(C)N(CCCCc2ccccc2)C(=O)NC2(C(=O)O)CCC2)cc(OCC)c1C(C)=O` (single isomer, unassigned) [Example 5-111] reads 128 nM; that for `CCOc1cc([C@@H](C)N(CCO[C@@H](C)c2ccccc2)C(=O)N[C@]2(C(=O)O)C[C@H](OCC)C2)cc(OCC)c1C(C)O` (some centres unmarked) [Example 4-134], 3.92 nM.
Consider `CCOc1cc(C(C)N(CCCCc2ccccc2)C(=O)NC(C)(C)c2nn[nH]n2)cc(OCC)c1C(C)=O` (centres unmarked) [Example 10-2], for which the IC50 is 2.48 nM.
For the compound `COc1cc(C(C)N(CCOCc2ccccc2)C(=O)NC2(C(=O)O)CC2)c(Cl)c(OC)c1C1CC1` (centres unmarked) [Example 5-129], the IC50 was 38.4 nM.
On the same count and under the same terms, under `CCOc1cc([C@@H](C)N(CCC(F)(F)Cc2ccccc2)C(=O)N[C@]2(C(=O)O)C[C@@H](OC)C2)cc(OCC)c1C(C)=O` [Example 4-89] stands 7.59 nM; under `CCOc1cc(C(C)N(CCCCc2ccccc2)C(=O)NC2(C(=O)O)CC(F)(F)C2)cc(OCC)c1C(=O)O` (centres unmarked) [Example 1-39], 5640 nM; under `CCOc1cc(C(C)N(CCCCc2ccccc2)C(=O)NC2CCC[C@@H]2C(=O)O)cc(OCC)c1C` (some centres unmarked) [Example 1-137], 102 nM.
On the same count and under the same terms, the result for `CCOc1cc(C(C)N(CCCCc2ccccc2)C(=O)NC2(C(=O)O)CCC(C(=O)O)CC2)cc(OCC)c1C` (centres unmarked) [Example 1-120] reads 1670 nM.
Same read-out and setting: the result for `CCOc1cc([C@@H](C)N(CCO[C@@H](C)c2ccccc2)C(=O)N[C@]2(C(=O)O)C[C@H](OCC)C2)c(Cl)c(OCC)c1C(C)=O` [Example 5-27] reads 3.84 nM; that for `CCOc1cc([C@@H](C)N(CCCCc2ccccc2)C(=O)NC2CCCC2C(=O)O)cc(OCC)c1C(C)=O` (some centres unmarked) [Example 1-135], 2.17 nM.
For `CCOc1cc([C@@H](C)N(CCCCc2ccccc2)C(=O)NC2(C(=O)O)CCOC2)cc(OCC)c1C` (some centres unmarked) [Example 1-150], the IC50 was 8 nM.
Same read-out and setting: the result for `CCOc1cc(C(C)N(CCCCc2ccccc2)C(=O)NC2(C(=O)O)CC(OCC)C2)c(Cl)c(OCC)c1C(C)=O` (centres unmarked) [Example 5-50] reads 3.1 nM; that for `CCOc1cc([C@@H](C)N(CCO[C@@H](C)c2ccccc2)C(=O)N[C@]2(C(=O)O)C[C@H](OC)C2)c(Cl)c(OCC)c1C(C)=O` [Example 5-29], 4.63 nM; that for `CCOc1cc([C@@H](C)N(CCO[C@@H](C)c2ccccc2)C(=O)N[C@]2(C(=O)O)C[C@@H](OCC)C2)cc(OCC)c1C1CC1` [Example 4-139, cis-1-[([(1R)-1-(4-cyclopropyl-3,5-diethoxyphenyl)ethyl]{2-[(1S)-1-phenylethoxy]ethyl}carbamoyl)amino]-3-ethoxycyclobutane-1-carboxylic acid], 1.32 nM.
On the same count and under the same terms, under `CCOc1c(C(C)=O)ccc([C@@H](C)N(CCO[C@@H](C)c2ccccc2)C(=O)N[C@]2(C(=O)O)C[C@H](OCC)C2)c1C` [Example 4-141] stands 7.62 nM; under `CCOc1cc([C@@H](C)N(CCCCc2ccccc2)C(=O)NC2(C(=O)O)CC(OC)C2)c(Cl)c(OCC)c1C(C)=O` (some centres unmarked) [Example 5-48], 3.77 nM.
Still for that read-out and setting: the result for `CCOc1cc([C@@H](C)N(CCO[C@@H](C)c2ccccc2)C(=O)N[C@]2(C(=O)O)C[C@@H](OCC)C2)cc(OCC)c1C(C)O` (some centres unmarked) [Example 4-135] reads 5.33 nM.
Take `CCOc1cc(C(C)N(CCO[C@@H](C)c2ccccc2)C(=O)N[C@]2(C(=O)O)C[C@@H](OCC)C2)c(Cl)c(OCC)c1C(C)=O` (some centres unmarked) [Example 5-218]: the IC50 is 1.99 nM.
On the same count and under the same terms, under `CCOc1cc(C(C)N(CCCCc2ccccc2)C(=O)NC2CCC2C(=O)O)cc(OCC)c1C(C)=O` (centres unmarked) [Example 1-125] stands 3.09 nM; under `CCOc1cc([C@@H](C)N(CCCCc2cccnc2)C(=O)NC2(C(=O)O)CC(F)(F)C2)cc(OCC)c1C` [Example 4-29], 17.6 nM; under `CCOc1cc([C@@H](C)N(CCO[C@H](C)c2ccccc2)C(=O)N[C@]2(C(=O)O)C[C@@H](OC)C2)c(Cl)c(OCC)c1C(C)=O` [Example 5-35], 3.97 nM.
Take `CCOc1cc(C(C)N(CCCCc2ccccc2)C(=O)NC2(CC(=O)O)CCCC2)cc(OCC)c1C` (centres unmarked) [Example 1-146]: the IC50 was 24.3 nM.
On the same count and under the same terms, under `CCOc1cc(OCC)cc(C(C)N(CCCCc2ccccc2)C(=O)NC2(C(=O)O)CC(F)(F)C2)c1` (centres unmarked) [Example 5-1, 1-({[1-(3,5-Diethoxyphenyl)Ethyl](4-Phenylbutyl) Carbamoyl}Amino)-3,3-Difluorocyclobutane-1-Carboxylic Acid] stands 99.6 nM.
On the same count and under the same terms, under `CCOc1cc([C@@H](C)N(CCOCc2ccccc2)C(=O)NC2CCOCC2C(=O)O)c(Cl)c(OCC)c1C(C)O` (single isomer, unassigned) [Example 5-70] stands 4.29 nM.
Still for that read-out and setting: the result for `CCOc1cc(C(C)N(CCOC(C)c2ccccc2)C(=O)NC2(C(=O)O)CC(OC)C2)c(Cl)c(OCC)c1C(C)=O` (centres unmarked) [Example 5-208] reads 3.5 nM.
For the compound `CCOc1cc([C@@H](C)N(CCCOc2ccccc2)C(=O)NC2(C(=O)O)CC(F)(F)C2)cc(OCC)c1C` [Example 4-98], the IC50 is 5.48 nM.
